Test system: yeast genes (level of expressed mRNA)
Experiment: DNA chip analysis of expressed mRNA of yeast genes after 2 h culture with a toxic chemical substance
Type: cell-based, Saccharomyces cerevisiae S288C
Outline: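 S. cerevisiae S288C in YPD at 25 °C was exposed at log phase for 2 h to a growth-inhibiting, non-lethal concentration of the chemical. Poly(A) mRNA was reverse-transcribed with Cy3- or Cy5-dUTP and hybridized to a whole-genome yeast DNA chip (65 °C, >12 h). Values are fluorescence ratios versus untreated cells.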

sodium dodecylbenzosulfonate [(17)]
level of expressed mRNA in the presence of chemical substance/in its absence (gene YAL012W): 0.9 | The level of expressed mRNA in the presence of chemical substance/absence: YAL014C (gene YAL014C): 1.1 | The level of expressed mRNA in the presence of chemical substance/absence: YAL017W (gene YAL017W): 1.0 | The level of expressed mRNA in the presence of chemical substance/absence: YAL018C (gene YAL018C): 0.9 | level of expressed mRNA in the presence of chemical substance/in its absence (gene YAL038W): 1.0 | level of expressed mRNA in the presence of chemical substance/in its absence (gene YAL044C): 1.4 | The level of expressed mRNA in the presence of chemical substance/absence: YAL049C (gene YAL049C): 1.6 | level of expressed mRNA in the presence of chemical substance/in its absence (gene YAL054C): 1.5 | The level of expressed mRNA in the presence of chemical substance/absence: YAR047C (gene YAR047C): 1.7 | The level of expressed mRNA in the presence of chemical substance/absence: YAR064W (gene YAR064W): 0.9 | level of expressed mRNA in the presence of chemical substance/in its absence (gene YAR071W): 0.7 | level of expressed mRNA in the presence of chemical substance/in its absence (gene YBL001C): 1.6 | The level of expressed mRNA in the presence of chemical substance/absence: YBL044W (gene YBL044W): 0.8 | The level of expressed mRNA in the presence of chemical substance/absence: YBL100C (gene YBL100C): 0.8 | The level of expressed mRNA in the presence of chemical substance/absence: YBR012C (gene YBR012C): 1.4 | The level of expressed mRNA in the presence of chemical substance/absence: YBR013C (gene YBR013C): 1.4 | level of expressed mRNA in the presence of chemical substance/in its absence (gene YBR014C): 1.0 | level of expressed mRNA in the presence of chemical substance/in its absence (gene YBR023C): 0.7 | level of expressed mRNA in the presence of chemical substance/in its absence (gene YBR029C): 0.6 | level of expressed mRNA in the presence of chemical substance/in its absence (gene YBR035C): 1.5 | level of expressed mRNA in the presence of chemical substance/in its absence (gene YBR050C): 1.5 | The level of expressed mRNA in the presence of chemical substance/absence: YBR051W (gene YBR051W): 1.1 | The level of expressed mRNA in the presence of chemical substance/absence: YBR063C (gene YBR063C): 1.2 | The level of expressed mRNA in the presence of chemical substance/absence: YBR066C (gene YBR066C): 1.2 | level of expressed mRNA in the presence of chemical substance/in its absence (gene YBR068C): 1.1 | level of expressed mRNA in the presence of chemical substance/in its absence (gene YBR111C): 1.4 | The level of expressed mRNA in the presence of chemical substance/absence: YBR124W (gene YBR124W): 0.9 | The level of expressed mRNA in the presence of chemical substance/absence: YBR129C (gene YBR129C): 1.0 | level of expressed mRNA in the presence of chemical substance/in its absence (gene YBR145W): 1.7 | The level of expressed mRNA in the presence of chemical substance/absence: YBR162C (gene YBR162C): 1.2 | level of expressed mRNA in the presence of chemical substance/in its absence (gene YBR183W): 1.4 | level of expressed mRNA in the presence of chemical substance/in its absence (gene YBR222C): 0.8 | The level of expressed mRNA in the presence of chemical substance/absence: YBR255W (gene YBR255W): 1.0 | The level of expressed mRNA in the presence of chemical substance/absence: YBR281C (gene YBR281C): 0.7 | The level of expressed mRNA in the presence of chemical substance/absence: YBR287W (gene YBR287W): 3.2 | level of expressed mRNA in the presence of chemical substance/in its absence (gene YBR299W): 1.0 | level of expressed mRNA in the presence of chemical substance/in its absence (gene YCL009C): 1.1 | The level of expressed mRNA in the presence of chemical substance/absence: YCL042W (gene YCL042W): 0.8 | The level of expressed mRNA in the presence of chemical substance/absence: YCL044C (gene YCL044C): 0.9 | The level of expressed mRNA in the presence of chemical substance/absence: YCL056C (gene YCL056C): 1.2 | level of expressed mRNA in the presence of chemical substance/in its absence (gene YCL064C): 0.3 | The level of expressed mRNA in the presence of chemical substance/absence: YCR007C (gene YCR007C): 2.6 | level of expressed mRNA in the presence of chemical substance/in its absence (gene YCR037C): 1.4 | level of expressed mRNA in the presence of chemical substance/in its absence (gene YCR048W): 1.2 | level of expressed mRNA in the presence of chemical substance/in its absence (gene YCR098C): 1.7 | level of expressed mRNA in the presence of chemical substance/in its absence (gene YDL022W): 1.0 | The level of expressed mRNA in the presence of chemical substance/absence: YDL046W (gene YDL046W): 1.2 | The level of expressed mRNA in the presence of chemical substance/absence: YDL089W (gene YDL089W): 1.0 | The level of expressed mRNA in the presence of chemical substance/absence: YDL173W (gene YDL173W): 1.3 | The level of expressed mRNA in the presence of chemical substance/absence: YDL193W (gene YDL193W): 0.9 | The level of expressed mRNA in the presence of chemical substance/absence: YDL233W (gene YDL233W): 1.1 | level of expressed mRNA in the presence of chemical substance/in its absence (gene YDR009W): 1.2 | level of expressed mRNA in the presence of chemical substance/in its absence (gene YDR019C): 1.2 | The level of expressed mRNA in the presence of chemical substance/absence: YDR071C (gene YDR071C): 0.9 | The level of expressed mRNA in the presence of chemical substance/absence: YDR078C (gene YDR078C): 0.9 | The level of expressed mRNA in the presence of chemical substance/absence: YDR090C (gene YDR090C): 1.1 | The level of expressed mRNA in the presence of chemical substance/absence: YDR109C (gene YDR109C): 1.2 | The level of expressed mRNA in the presence of chemical substance/absence: YDR128W (gene YDR128W): 0.9 | The level of expressed mRNA in the presence of chemical substance/absence: YDR133C (gene YDR133C): 0.6 | The level of expressed mRNA in the presence of chemical substance/absence: YDR140W (gene YDR140W): 1.3 | The level of expressed mRNA in the presence of chemical substance/absence: YDR221W (gene YDR221W): 1.1 | The level of expressed mRNA in the presence of chemical substance/absence: YDR250C (gene YDR250C): 0.9 | The level of expressed mRNA in the presence of chemical substance/absence: YDR271C (gene YDR271C): 1.2 | The level of expressed mRNA in the presence of chemical substance/absence: YDR278C (gene YDR278C): 0.7 | The level of expressed mRNA in the presence of chemical substance/absence: YDR281C (gene YDR281C): 1.5 | The level of expressed mRNA in the presence of chemical substance/absence: YDR316W (gene YDR316W): 0.6 | The level of expressed mRNA in the presence of chemical substance/absence: YDR338C (gene YDR338C): 0.9 | The level of expressed mRNA in the presence of chemical substance/absence: YDR366C (gene YDR366C): 1.2 | level of expressed mRNA in the presence of chemical substance/in its absence (gene YDR380W): 0.8 | level of expressed mRNA in the presence of chemical substance/in its absence (gene YDR410C): 1.0 | The level of expressed mRNA in the presence of chemical substance/absence: YDR421W (gene YDR421W): 0.7 | The level of expressed mRNA in the presence of chemical substance/absence: YDR425W (gene YDR425W): 1.2 | The level of expressed mRNA in the presence of chemical substance/absence: YDR485C (gene YDR485C): 0.8 | level of expressed mRNA in the presence of chemical substance/in its absence (gene YDR487C): 1.5 | level of expressed mRNA in the presence of chemical substance/in its absence (gene YDR502C): 0.9 | The level of expressed mRNA in the presence of chemical substance/absence: YDR504C (gene YDR504C): 1.2 | level of expressed mRNA in the presence of chemical substance/in its absence (gene YEL011W): 1.4 | level of expressed mRNA in the presence of chemical substance/in its absence (gene YEL020C): 1.2 | The level of expressed mRNA in the presence of chemical substance/absence: YEL044W (gene YEL044W): 1.4 | level of expressed mRNA in the presence of chemical substance/in its absence (gene YER026C): 1.7 | level of expressed mRNA in the presence of chemical substance/in its absence (gene YER069W): 1.1 | The level of expressed mRNA in the presence of chemical substance/absence: YER092W (gene YER092W): 1.4 | The level of expressed mRNA in the presence of chemical substance/absence: YER182W (gene YER182W): 0.8 | The level of expressed mRNA in the presence of chemical substance/absence: YFL042C (gene YFL042C): 1.1 | level of expressed mRNA in the presence of chemical substance/in its absence (gene YFR015C): 1.3 | The level of expressed mRNA in the presence of chemical substance/absence: YFR026C (gene YFR026C): 1.1 | The level of expressed mRNA in the presence of chemical substance/absence: YFR056C (gene YFR056C): 1.1 | level of expressed mRNA in the presence of chemical substance/in its absence (gene YGL001C): 1.9 | level of expressed mRNA in the presence of chemical substance/in its absence (gene YGL022W): 0.9 | level of expressed mRNA in the presence of chemical substance/in its absence (gene YGL039W): 0.6 | The level of expressed mRNA in the presence of chemical substance/absence: YGL041C (gene YGL041C): 1.0 | The level of expressed mRNA in the presence of chemical substance/absence: YGL045W (gene YGL045W): 1.3 | The level of expressed mRNA in the presence of chemical substance/absence: YGL057C (gene YGL057C): 0.9 | The level of expressed mRNA in the presence of chemical substance/absence: YGL088W (gene YGL088W): 0.5
